In PMC4809600, “The Influence of Chronic Wound Extracts on Inflammatory Cytokine and Histatin Stability” (PLoS ONE, 2016):
Where no end group is shown, it is not given here.

How the values were obtained:
[1] = Stability in chronic wound extracts (CWE), capillary zone electrophoresis; format: in vitro ADME, human; settings: 37°C, CZE; for Percentage intact, CWE 2h / Percentage intact, CWE 4h / Percentage intact, CWE 8h / Percentage intact, CWE 16h / Percentage intact, CWE 24h / Percentage intact, CWE 48h / Percentage intact, CWE 72h / Percentage intact, CWE 96h: 1 mg/ml in PBS mixed 1:1 with CWE (1 mg/ml protein, pool of 5 donors) in PBS, UV 200 nm, ratio to imidazole
Source text: (§1) Debridement tissue was obtained from chronic ulcers of 15 patients with therapy resistant (arterio-venous) leg ulcers, according to procedures described earlier. In brief, moist, easily removable debridement material, essentially blood free, was collected from the ulcer surface and divided equally into two different solutions: (i) PBS (B. Braun, Melsungen, Germany), (ii) PBS with protease inhibitor cocktail (PIC) (1:100; v/v) (Sigma-Aldrich, Steinheim, Germany). The mixtures were gently shaken for 1 h at 4°C to elute proteins and centrifuged; the supernatants were stored at -80°C. Total protein content of the supernatant was measured using the BioRad Protein Assay (BioRad Laboratories, Hercules, California, USA) essentially as described by the supplier. Samples were diluted to 1 mg/ml protein and extracts of five different donors were pooled; three different pools of five donors were used in all experiments. The samples are referred to as chronic wound extracts (CWE).
(§2) To determine the stability of the different peptides in CWE, histatins and cytokines were dissolved in PBS at 1 mg/ml. Histatins and cytokines were incubated in a 1:1 ratio with (i) PBS, (ii) CWE in PBS, or (iii) CWE in PBS containing PIC, in a total volume of 25 μl. Imidazole (Sigma-Aldrich) was added as an internal standard, with a final concentration of 100 μg/ml. The mixtures were incubated at 37°C, and samples were taken at 0, 24, 48, 72 and 96 h. For histatins containing mixtures, additional samples were taken after 2, 4, 8 and 16 h of incubation.
(§3) The samples were analyzed with a BioFocus 2000 capillary zone electrophoresis system (Bio-Rad Laboratories, Hercules, CA, USA) equipped with an uncoated fused-silica capillary of internal diameter 50 μm and a length of 24 cm. Samples were loaded by pressure injection (5 psi/sec). Separation was performed at 10 kV (cathode at the detector side) at 20°C using 0.1 M phosphate buffer (pH 2.5) as electrolyte and monitored continuously at 200 nm. Peaks were quantified with the BioFocus Integrator software. In order to quantify the percentage of intact peptides remaining after incubation with CWE, the ratios of histatins, rhIL-6 or rhCXCL8 to internal standard was set at 100% at 0h, and the ratios at the other incubation time points were related to this.

[2] = Stability in CWE with protease inhibitor cocktail (PIC), capillary zone electrophoresis; format: in vitro ADME, human; settings: 37°C, CZE, 0 h = 100%; for Percentage intact, CWE + PIC 2h / Percentage intact, CWE + PIC 4h / Percentage intact, CWE + PIC 8h / Percentage intact, CWE + PIC 16h / Percentage intact, CWE + PIC 24h / Percentage intact, CWE + PIC 48h / Percentage intact, CWE + PIC 72h / Percentage intact, CWE + PIC 96h: 1 mg/ml in PBS mixed 1:1 with CWE (1 mg/ml protein, pool of 5 donors) in PBS containing PIC (final 1:140 v/v), ratio to imidazole
Source text: as §1, §2, §3

Percentage intact, CWE 2h ([1]; 0 h = 100%, experiment 1 of 3): 96.21% | Percentage intact, CWE 2h ([1]; 0 h = 100%, experiment 2 of 3): 97.4179% | Percentage intact, CWE 2h ([1]; 0 h = 100%, experiment 3 of 3): 80.1639% | Percentage intact, CWE 4h ([1]; 0 h = 100%, experiment 1 of 3): 78.5338% | Percentage intact, CWE 4h ([1]; 0 h = 100%, experiment 2 of 3): 80.0345% | Percentage intact, CWE 4h ([1]; 0 h = 100%, experiment 3 of 3): 54.5442% | Percentage intact, CWE 8h ([1]; 8 h, 0 h = 100%, experiment 1 of 3): 57.5027% | Percentage intact, CWE 8h ([1]; 8 h, 0 h = 100%, experiment 2 of 3): 66.6666% | Percentage intact, CWE 8h ([1]; 8 h, 0 h = 100%, experiment 3 of 3): 34.5662% | Percentage intact, CWE 16h ([1]; 0 h = 100%, experiment 1 of 3): 14.9136% | Percentage intact, CWE 16h ([1]; 0 h = 100%, experiment 2 of 3): 27.664% | Percentage intact, CWE 16h ([1]; 0 h = 100%, experiment 3 of 3): 7.724% | Percentage intact, CWE 24h ([1]; 24 h, 0 h = 100%, experiment 1 of 3): 4.675% | Percentage intact, CWE 24h ([1]; 24 h, 0 h = 100%, experiment 2 of 3): 5.495% | Percentage intact, CWE 24h ([1]; 24 h, 0 h = 100%, experiment 3 of 3): 8.834% | Percentage intact, CWE 48h ([1]; 0 h = 100%, experiment 2 of 3): 0.0001% | Percentage intact, CWE 48h ([1]; 0 h = 100%, experiment 3 of 3): 0.0001% | Percentage intact, CWE 72h ([1]; 0 h = 100%, experiment 2 of 3): 0.0001% | Percentage intact, CWE 72h ([1]; 0 h = 100%, experiment 3 of 3): 0.0001% | Percentage intact, CWE 96h ([1]; 0 h = 100%, experiment 2 of 3): 0.0001% | Percentage intact, CWE 96h ([1]; 0 h = 100%, experiment 3 of 3): 0.0001% | remaining at 8 h, 0.5 mg/ml ([1]; human, chronic wound extracts (CWE), 1 mg/ml in PBS mixed 1:1 with CWE (1 mg/ml protein, pools of 5 donors), 8 h, 0 h = 100%, mean of 3 independent experiments, read-out: Original amount of peptide remaining intact after 8 h in CWE): 53% | remaining at 24 h, 0.5 mg/ml ([1]; human, chronic wound extracts (CWE), 1 mg/ml in PBS mixed 1:1 with CWE (1 mg/ml protein, pools of 5 donors), 24 h, 0 h = 100%, mean of 3 independent experiments, read-out: Original amount of peptide remaining intact after 24 h in CWE): 6% | metabolised at 8 h, 0.5 mg/ml ([1]; human, chronic wound extracts (CWE), incubation with chronic wound extracts, 8 h, read-out: Breakdown (degradation) in CWE in 8 h): ~50% | Percentage intact, CWE + PIC 2h ([2]; experiment 1 of 3): 93.4426% | Percentage intact, CWE + PIC 2h ([2]; experiment 2 of 3): 92.5142% | Percentage intact, CWE + PIC 2h ([2]; experiment 3 of 3): 89.0301% | Percentage intact, CWE + PIC 4h ([2]; experiment 1 of 3): 91.5351% | Percentage intact, CWE + PIC 4h ([2]; experiment 2 of 3): 92.7977% | Percentage intact, CWE + PIC 4h ([2]; experiment 3 of 3): 86.7184% | Percentage intact, CWE + PIC 8h ([2]; experiment 1 of 3): 85.6684% | Percentage intact, CWE + PIC 8h ([2]; experiment 2 of 3): 89.4382% | Percentage intact, CWE + PIC 8h ([2]; experiment 3 of 3): 85.0239% | Percentage intact, CWE + PIC 16h ([2]; experiment 1 of 3): 76.054% | Percentage intact, CWE + PIC 16h ([2]; experiment 2 of 3): 80.3459% | Percentage intact, CWE + PIC 16h ([2]; experiment 3 of 3): 78.2959% | Percentage intact, CWE + PIC 24h ([2]; 24 h, experiment 1 of 3): 76.7074% | Percentage intact, CWE + PIC 24h ([2]; 24 h, experiment 2 of 3): 74.947% | Percentage intact, CWE + PIC 24h ([2]; 24 h, experiment 3 of 3): 84.5492% | Percentage intact, CWE + PIC 48h ([2]; experiment 1 of 3): 70.9832% | Percentage intact, CWE + PIC 48h ([2]; experiment 2 of 3): 66.2527% | Percentage intact, CWE + PIC 48h ([2]; experiment 3 of 3): 75.4922% | Percentage intact, CWE + PIC 72h ([2]; experiment 1 of 3): 69.8915% | Percentage intact, CWE + PIC 72h ([2]; experiment 2 of 3): 66.4949% | Percentage intact, CWE + PIC 72h ([2]; experiment 3 of 3): 68.9587% | Percentage intact, CWE + PIC 96h ([2]; experiment 1 of 3): 63.8972% | Percentage intact, CWE + PIC 96h ([2]; experiment 2 of 3): 62.3087% | Percentage intact, CWE + PIC 96h ([2]; experiment 3 of 3): 62.2105% | remaining at 24 h, 0.5 mg/ml ([2]; human, with protease inhibitor cocktail (PIC), CWE with protease inhibitor cocktail (final 1:140 v/v), 24 h, mean of 3 independent experiments, read-out: Remaining fraction of intact peptide after 24 h in CWE + PIC): 78%
Sequence: RKFHEKHHSHREFPFYGDYGSNYLYDN [Hst2]
